Assay results taken from patent publication US20120214734A1, “TREATMENT OF METABOLIC DISORDERS” (priority 2011, published 2012).

What was measured:
Type in all cases: in vivo, human
[1] = Retrospective screen of chronic-care charts of obese hypertensive prisoners: random serum glucose, fasting lipid panel, blood pressure, weight; settings: for dose-dependent effects: chart study, discussion
Excerpt: One-hundred ten (110) patient charts in chronic care for hypertension at an 1800-capacity prison were initially screened. The data included age, weight, height, ethnicity, medications, lipid panel results for glucose, triglycerides and HDL-C, and blood pressure. All known or previously diagnosed diabetics were excluded from the study.
For cases involving ACE inhibitor plus simvastatin, further analysis included evaluation of total cholesterol and calculated low density lipoprotein (LDL-C).
In order to evaluate the effects of simvastatin without ACE inhibitor, 5 additional charts were screened (increasing n to 13).
The data were analyzed with respect to random serum lab values including random serum glucose and fasting lipid panel (which included total cholesterol, HDL-C, TG, and the calculated LDL-C). […] In addition, a few charts were evaluated for temporal changes spanning chronic care visits including weight, mean arterial blood pressure, medication adjustments, and random serum values of HDL-C, triglycerides, and glucose. A two-tailed student t test was used to test for significance between 2 sample means. Linear regression analysis with F statistic was used to obtain goodness of fit. Only coefficients of determination (r2) of 0.1 or greater were reported. […] The level of significance used was a probability (P)<0.05.

[2] = Example 3: ACE inhibitor given to severely obese person with low HDL-C; settings: 75 mg/day, after 1 year; baseline 25 mg/dL
Procedure: A person presents with normal blood pressure (125/85), normal fasting glucose (105 mg/dL), and normal triglyceride (145 mg/dL). They are severely obese with a BMI of 40. […] The patient is considered to be at significant risk of developing metabolic syndrome and/or cardiovascular disease later in life. They are advised of the risk and of the beneficial effects of losing weight. After 1 year the patient advises that despite strenuous effects to lose weight, including dieting and exercise, their bodyweight remains the same. They are prescribed Captopril, 75 mg/day.

[3] = Example 2: ACE inhibitor given to non-obese person with low HDL-C; settings: 10 mg/day, after 1 year; baseline 30 mg/dL; without concomitant weight loss or lifestyle changes
Procedure: A non-obese person presents for physical examination. […] The patient's parent is on anti-hypertension and anti-lipemic medications. The patient's older sibling is obese, hypertensive, and is being treated for coronary artery disease including recent placement of a cardiac stent for primary coronary artery blockage. […] Given the patients family history and low HDL-C […] risk of developing one or more metabolic conditions is considered high. They are prescribed Lisinopril, 10 mg/day.

[4] = FIG. 5A, controls without ACE inhibitor (with and without Hctz)
[5] = FIG. 7, upper limit of normal daily dosages
[6] = one individual over 44 months (FIG. 3), captopril from 24 months, no anti-lipemic agent

For `NS(=O)(=O)c1cc2c(cc1Cl)NCNS2(=O)=O` [Hctz, Hydrochlorothiazide], the mean glucose ([1]; FIG. 5A, controls without ACE inhibitor (stated for both controls, with and without Hctz)) was greater than 110 mg/dL, the “mean HDL-C” value [1, 4] was less than 42 mg/dL and the mean triglyceride [1, 4] was greater than 159 mg/dL. The “random serum glucose with age” value ([1]; FIG. 5C, absence of ACE inhibitor) was “caused an age-related increase”, the “mean glucose +/-SEM” value ([1]; presence of Hctz, n=15, no ACE inhibitor, no anti-lipemic) was 105.8 ± 5.4 mg/dL and the insulin-resistant state ([1]; with vs without Hctz, no ACE inhibitor) was “did not improve”.

With `C[C@H](CS)C(=O)N1CCC[C@H]1C(=O)O` [captopril] the “triglyceride, dose effect” value ([1]; FIG. 6B) was “significant (P <0.02) dose-dependent decrease”, the “mean HDL-C” value [1, 5] was “parallel increases” and the mean glucose [1, 5] was “parallel decreases”. For the same compound, the mean triglyceride [1, 5] was “parallel decreases”, the dose-dependent effects [1] was “dose-dependent effects” and the HDL-C ([1]; one individual followed over 44 months (FIG. 3), captopril introduced at 24 months, atenolol and hydrochlorothiazide discontinued, no anti-lipemic agent) was “increased”. The glucose [1, 6] was “decreased”, the “mean arterial blood pressure” value [1, 6] was “decreased” and the serum triglyceride [1, 6] was “decreased”. For the same compound, the HDL-C levels [2] was 30 mg/dL.

For `CCOC(=O)[C@H](CCc1ccccc1)N[C@@H](C)C(=O)N1CCC[C@H]1C(=O)O` [enalapril], the “mean HDL-C” value [1, 5] was “parallel increases”, the mean glucose [1, 5] was “parallel decreases” and the mean triglyceride [1, 5] was “parallel decreases”.

For `C[C@H](N[C@@H](CCc1ccccc1)C(=O)O)C(=O)N1CCC[C@H]1C(=O)O` [enalaprilat], the “potency at preventing insulin resistance” value ([1]; compared with captopril, at presumptive therapeutically equivalent antihypertensive dosages) was “less potent”.

For `NCCCC[C@H](N[C@@H](CCc1ccccc1)C(=O)O)C(=O)N1CCC[C@H]1C(=O)O` [lisinopril], the “dose effects with glucose, triglyceride and HDL-C” value ([1]; 20 and 40 mg/day) was “occurred”, the “HDL-C, dose effect” value ([1]; FIG. 6A) was “significant (P<0.05) dose-dependent increase” and the “mean HDL-C” value [1, 5] was “parallel increases”. The mean glucose [1, 5] was “parallel decreases”, the mean triglyceride [1, 5] was “parallel decreases” and the dose-dependent effects [1] was “dose-dependent effects”. For the same compound, the HDL-C levels [3] was “have risen”.
